According to paper PMC12512182, “Unveiling the Structural and Biochemical Characteristics of an Acidophilic β‑Mannanase from Soybean (Glycine max)” (Journal of Agricultural and Food Chemistry, 2025):

Molecular target: T1, GmMAN19-1 (Glycine max, UniProt I1NBK5, Q294W)
T1 construct: gene LOC100787923; mature form, signal peptide 1-27 removed; pGEX-4T-1 (EcoRI/XhoI) N-terminal GST fusion from E. coli BL21(DE3), GST cut with thrombin leaving N-terminal Gly-Ser; ~40 kDa; 371 residues in the crystal structure
T1 sequence (I1NBK5 28-410 Q294W): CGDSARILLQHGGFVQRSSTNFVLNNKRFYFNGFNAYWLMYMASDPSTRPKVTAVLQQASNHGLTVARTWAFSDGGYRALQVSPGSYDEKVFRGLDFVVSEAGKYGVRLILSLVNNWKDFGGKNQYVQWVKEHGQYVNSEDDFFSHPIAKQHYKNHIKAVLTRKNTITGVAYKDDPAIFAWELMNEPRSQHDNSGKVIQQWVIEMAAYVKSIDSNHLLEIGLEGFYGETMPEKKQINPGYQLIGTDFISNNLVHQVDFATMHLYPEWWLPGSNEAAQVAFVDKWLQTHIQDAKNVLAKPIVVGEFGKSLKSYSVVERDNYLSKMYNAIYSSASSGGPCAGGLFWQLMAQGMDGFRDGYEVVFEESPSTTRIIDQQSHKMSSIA
Assay: TLC product profile of M5 conversion
Type: biochemical
Details: 1 μM enzyme, 25 mM M5, pH 4.6, 40 °C (optimal assay conditions); hydrolysis and transglycosylation

For OC[C@H]1O[C@@H](O[C@H]2[C@H](O)[C@H](O)[C@H](O[C@H]3[C@H](O)[C@H](O)[C@H](O[C@H]4[C@H](O)[C@H](O)[C@H](O[C@H]5[C@H](O)[C@H](O)C(O)O[C@@H]5CO)O[C@@H]4CO)O[C@@H]3CO)O[C@@H]2CO)[C@@H](O)[C@@H](O)[C@@H]1O (stereo partly shown) [M5, mannopentaose], the “TLC product profile of M5 conversion” value was “the Q267W mutant displayed an altered transglycosylation profile, generating shorter-chain oligosaccharides”.
